Assay results as given in US10564150B2, “Cell mediated immune response assay” (priority 2012, dated 2020).

Key:
[1] = test system: whole blood from donors; IFN-gamma response to CMV antigens; experiment: QFN CMV assay with four different non-reducing sugars; type: cell-based, human; conditions: for response to the CMV antigens (percentage increase in IFN-gamma IU/ml over the non-additive tube): 2 mg/ml final blood concentration, 5 donors, background subtracted
Description: For this experiment, four different non-reducing sugars were added to QFN CMV antigen tubes and a corresponding Nil tube. To reach a final blood concentration of 2 mg/ml, a corresponding solution of sucrose, trehalose, mannitol and raffinose in PBS was added to whole blood obtained from 5 donors. […] The assay was run in accordance with the QFN package insert which is an established assay. The x-axis (see FIG. 3) indicates the tested conditions. The background (value from Nil tubes with/without the addition of the respective sugar) was subtracted from the corresponding CMV tube and the percentage increase in the IFN-gamma value (IU/ml) over the non-additive tube calculated (y axis).

[2] = test system: whole blood IFN-gamma response to EBNA-1 from the Epstein-Barr virus; experiment: QuantiFERON assay measuring anti-EBV cellular immune responses (EBNA-1 peptides) plus/minus trehalose; type: cell-based
Description: Investigations using QuantiFERON technology to measure responses to the model antigen EBNA-1 from the Epstein-Barr virus were performed to assess increases in assay sensitivity induced by the addition of non-reducing sugars to the incubation mixture. Briefly, EBNA-1 peptides were added to a blood collection tube, plus/minus 3 concentrations of a trehalose solution (0.5, 1.0 or 2.0 mg/ml trehalose). QuantiFERON assay measuring anti-EBV cellular immune responses was run according to the manufacturer's instructions. The IFN-gamma response was determined and compared depending on the concentration of trehalose. […] A concentration of 2 mg/ml trehalose provided the best results in this test assay.

[3] = test system: whole blood from subjects with MTB infection; IFN-gamma response to Mycobacterium tuberculosis antigens ESAT-6 and CFP-10; experiment: QFN-TB antigen tubes manufactured with or without trehalose; type: cell-based, human; conditions: trehalose tube versus sugar free tube; 20 subjects with MTB infection; paired one-tailed t test, P=0.0005
[4] = test system: blood from healthy donors; CD8+ T cells, IFN-gamma response to Cytomegalovirus peptides; experiment: QFN-CMV assay with addition of trehalose; type: cell-based, human
Description: QuantiFERON (QFN) CMV is a CE registered assay monitoring T cell immune memory directed against antigens derived from the Cytomegalovirus. The QFN-CMV blood tubes contain peptides designed to specifically activate CD8+ T cells to produce interferon gamma (IFN-gamma). These tubes only contain peptide and heparin, with no addition of any sugar molecule.
This experiment aimed to investigate the effect on the IFN-gamma response when the non-reducing sugar, trehalose, was added to QFN-CMV tubes. 0, 1, 5 or 10 mg/ml of a trehalose (in water) solution was added to QFN-CMV blood collection tubes. 1 ml of blood from 17 healthy donors with a known anti-CMV T cell response was then added to each of the four tubes, and in addition a Nil tube and a Mitogen tube were run as controls. The QFN assay was then run according to the package insert. All values had the Nil value subtracted. IFN-gamma levels in IU/ml were normalized against the respective QFN-CMV+0 mg/ml trehalose (untreated control) to generate a ‘fold-change’ unit; to control for inter-donor variation in response magnitude. Healthy donors without a detectable anti-CMV immune response were included to control against non-specific IFN-gamma induction by trehalose.

SMILES: OC[C@@H](O)[C@@H](O)[C@H](O)[C@H](O)CO [mannitol]
- response to the CMV antigens (percentage increase in IFN-gamma IU/ml over the non-additive tube) [1]: increased response

SMILES: OC[C@H]1O[C@@](CO)(O[C@H]2O[C@H](CO)[C@@H](O)[C@H](O)[C@H]2O)[C@@H](O)[C@@H]1O [sucrose]
- response to the CMV antigens (percentage increase in IFN-gamma IU/ml over the non-additive tube) [1]: increased response

SMILES: OC[C@H]1O[C@H](OC[C@H]2O[C@H](O[C@]3(CO)O[C@H](CO)[C@@H](O)[C@@H]3O)[C@H](O)[C@@H](O)[C@@H]2O)[C@H](O)[C@@H](O)[C@H]1O [raffinose]
- response to the CMV antigens (percentage increase in IFN-gamma IU/ml over the non-additive tube) [1]: increased response

SMILES: OC[C@H]1O[C@H](O[C@H]2O[C@H](CO)[C@@H](O)[C@H](O)[C@H]2O)[C@H](O)[C@@H](O)[C@@H]1O [trehalose]
- IFN-gamma response ([2]; 0.5, 1.0 or 2.0 mg/ml trehalose, with increasing concentration): increase in IFN-gamma response
- trehalose concentration providing the best results ([2]; of 0.5, 1.0 and 2.0 mg/ml tested): 2 mg/mL
- quantitative response of the assay (IFN-gamma IU/ml, nil subtracted) [3]: significantly enhanced
- response to the CMV antigens (percentage increase in IFN-gamma IU/ml over the non-additive tube) [1]: increased response
- rank of the increase among the four non-reducing sugars ([1]; 2 mg/ml, order trehalose, mannitol, sucrose, raffinose): highest increase
- mean level of IFN-gamma (fold change versus matched untreated control) ([4]; 0, 1, 5 or 10 mg/ml trehalose, 17 healthy donors with known anti-CMV T cell response, Nil subtracted): concentration-dependent increase
- IFN-gamma fold change versus untreated control, significance ([4]; 5 and 10 mg/ml trehalose, Friedmans test with Dunns multiple comparisons test): significant increase
- background level of IFN-gamma in CMV-negative control donors ([4]; trehalose added, data not shown): No significant increase
